Here are results for one compound from publication PMC7567791 (Scientific Reports, 2020).

This assay concerns the target T1, μ-OR (Homo sapiens, UniProt P35372).
T1 construct: expressed in transfected cells; host or cells: HEK293A parental, ΔGRK2, ΔGRK3, ΔGRK2/3 (and Δβ-arrestin1/2) cells
The class given is cell-based.

T1 sequence (P35372 whole entry): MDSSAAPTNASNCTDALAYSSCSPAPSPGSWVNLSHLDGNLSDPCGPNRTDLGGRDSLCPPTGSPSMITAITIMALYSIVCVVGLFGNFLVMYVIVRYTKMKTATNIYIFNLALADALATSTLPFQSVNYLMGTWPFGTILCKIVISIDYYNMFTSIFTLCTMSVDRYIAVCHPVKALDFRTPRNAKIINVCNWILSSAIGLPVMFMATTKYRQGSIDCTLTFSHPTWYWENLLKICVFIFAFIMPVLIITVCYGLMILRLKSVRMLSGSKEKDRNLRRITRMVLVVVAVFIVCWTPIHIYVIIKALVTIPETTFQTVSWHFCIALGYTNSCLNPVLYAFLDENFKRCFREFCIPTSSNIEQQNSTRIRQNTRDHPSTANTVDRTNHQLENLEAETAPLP

With `C[C@@H](NC(=O)[C@@H](N)Cc1ccc(O)cc1)C(=O)NCC(=O)N(C)[C@@H](Cc1ccccc1)C(=O)NCCO` [DAMGO, D-Ala(2)-mephe(4)-gly-ol(5))enkephalin], the “time of peak in β-arrestin2 recruitment to μ-OR-EYFP” value is given as 6 min.
